Laboratory results from publication PMC10937199 (ESMO Open, 2024).

Tested on: patients with advanced solid tumors
Assay: Safety
Format: in vivo, human
Conditions: Part B

COc1ccc([C@@H](O)c2cc(-c3ncnc4cc(N5CCOCC5)ccc34)c(F)cc2Cl)nn1 [Peposertib]
IRR (100 mg q.d., all grade): 2 (66.7) n (%) | Immune-related AE (100 mg q.d., all grade): 0 n (%) | Serious TEAE (100 mg q.d., all grade): 2 (66.7) n (%) | Serious TEAE, peposertib related (100 mg q.d., all grade): 0 n (%) | Serious TEAE, radiotherapy related (100 mg q.d., all grade): 0 n (%) | Serious TEAE, treatment related (100 mg q.d., all grade): 1 (33.3) n (%) | TEAE (100 mg q.d., all grade): 3 (100.0) n (%) | TEAE, peposertib related (100 mg q.d., all grade): 2 (66.7) n (%) | TEAE, radiotherapy related (100 mg q.d., all grade): 1 (33.3) n (%) | TEAE, treatment related (100 mg q.d., all grade): 3 (100.0) n (%) | TEAEs leading to death (100 mg q.d., all grade): 0 n (%) | Treatment-related AE leading to death (100 mg q.d., all grade): 0 n (%) | IRR (100 mg q.d., grade ≥3): 0 n (%) | Immune-related AE (100 mg q.d., grade ≥3): 0 n (%) | Serious TEAE (100 mg q.d., grade ≥3): 2 (66.7) n (%) | Serious TEAE, peposertib related (100 mg q.d., grade ≥3): 0 n (%) | Serious TEAE, radiotherapy related (100 mg q.d., grade ≥3): 0 n (%) | Serious TEAE, treatment related (100 mg q.d., grade ≥3): 1 (33.3) n (%) | TEAE (100 mg q.d., grade ≥3): 2 (66.7) n (%) | TEAE, peposertib related (100 mg q.d., grade ≥3): 0 n (%) | TEAE, radiotherapy related (100 mg q.d., grade ≥3): 0 n (%) | TEAE, treatment related (100 mg q.d., grade ≥3): 1 (33.3) n (%) | TEAEs leading to death (100 mg q.d., grade ≥3): 0 n (%) | Treatment-related AE leading to death (100 mg q.d., grade ≥3): 0 n (%) | IRR (150 mg q.d., all grade): 1 (33.3) n (%) | Immune-related AE (150 mg q.d., all grade): 0 n (%) | Serious TEAE (150 mg q.d., all grade): 1 (33.3) n (%) | Serious TEAE, peposertib related (150 mg q.d., all grade): 0 n (%) | Serious TEAE, radiotherapy related (150 mg q.d., all grade): 0 n (%) | Serious TEAE, treatment related (150 mg q.d., all grade): 1 (33.3) n (%) | TEAE (150 mg q.d., all grade): 3 (100.0) n (%) | TEAE, peposertib related (150 mg q.d., all grade): 1 (33.3) n (%) | TEAE, radiotherapy related (150 mg q.d., all grade): 1 (33.3) n (%) | TEAE, treatment related (150 mg q.d., all grade): 3 (100.0) n (%) | TEAEs leading to death (150 mg q.d., all grade): 0 n (%) | Treatment-related AE leading to death (150 mg q.d., all grade): 0 n (%) | IRR (150 mg q.d., grade ≥3): 0 n (%) | Immune-related AE (150 mg q.d., grade ≥3): 0 n (%) | Serious TEAE (150 mg q.d., grade ≥3): 1 (33.3) n (%) | Serious TEAE, peposertib related (150 mg q.d., grade ≥3): 0 n (%) | Serious TEAE, radiotherapy related (150 mg q.d., grade ≥3): 0 n (%) | Serious TEAE, treatment related (150 mg q.d., grade ≥3): 1 (33.3) n (%) | TEAE (150 mg q.d., grade ≥3): 2 (66.7) n (%) | TEAE, peposertib related (150 mg q.d., grade ≥3): 1 (33.3) n (%) | TEAE, radiotherapy related (150 mg q.d., grade ≥3): 1 (33.3) n (%) | TEAE, treatment related (150 mg q.d., grade ≥3): 2 (66.7) n (%) | TEAEs leading to death (150 mg q.d., grade ≥3): 0 n (%) | Treatment-related AE leading to death (150 mg q.d., grade ≥3): 0 n (%) | IRR (200 mg q.d., all grade): 2 (50.0) n (%) | Immune-related AE (200 mg q.d., all grade): 1 (25.0) n (%) | Serious TEAE (200 mg q.d., all grade): 1 (25.0) n (%) | Serious TEAE, peposertib related (200 mg q.d., all grade): 0 n (%) | Serious TEAE, radiotherapy related (200 mg q.d., all grade): 0 n (%) | Serious TEAE, treatment related (200 mg q.d., all grade): 0 n (%) | TEAE (200 mg q.d., all grade): 4 (100.0) n (%) | TEAE, peposertib related (200 mg q.d., all grade): 2 (50.0) n (%) | TEAE, radiotherapy related (200 mg q.d., all grade): 3 (75.0) n (%) | TEAE, treatment related (200 mg q.d., all grade): 4 (100.0) n (%) | TEAEs leading to death (200 mg q.d., all grade): 0 n (%) | Treatment-related AE leading to death (200 mg q.d., all grade): 0 n (%) | IRR (200 mg q.d., grade ≥3): 0 n (%) | Immune-related AE (200 mg q.d., grade ≥3): 0 n (%) | Serious TEAE (200 mg q.d., grade ≥3): 1 (25.0) n (%) | Serious TEAE, peposertib related (200 mg q.d., grade ≥3): 0 n (%) | Serious TEAE, radiotherapy related (200 mg q.d., grade ≥3): 0 n (%) | Serious TEAE, treatment related (200 mg q.d., grade ≥3): 0 n (%) | TEAE (200 mg q.d., grade ≥3): 1 (25.0) n (%) | TEAE, peposertib related (200 mg q.d., grade ≥3): 0 n (%) | TEAE, radiotherapy related (200 mg q.d., grade ≥3): 0 n (%) | TEAE, treatment related (200 mg q.d., grade ≥3): 0 n (%) | TEAEs leading to death (200 mg q.d., grade ≥3): 0 n (%) | Treatment-related AE leading to death (200 mg q.d., grade ≥3): 0 n (%) | Peposertib-related pneumonitis (250 mg q.d.): 11.1% | Serious TEAE: dehydration (250 mg q.d.): 2/9 | IRR (250 mg q.d., all grade): 3 (33.3) n (%) | Immune-related AE (250 mg q.d., all grade): 2 (22.2) n (%) | Serious TEAE (250 mg q.d., all grade): 6 (66.7) n (%) | Serious TEAE, peposertib related (250 mg q.d., all grade): 1 (11.1) n (%) | Serious TEAE, radiotherapy related (250 mg q.d., all grade): 1 (11.1) n (%) | Serious TEAE, treatment related (250 mg q.d., all grade): 2 (22.2) n (%) | TEAE (250 mg q.d., all grade): 9 (100.0) n (%) | TEAE, peposertib related (250 mg q.d., all grade): 5 (55.6) n (%) | TEAE, radiotherapy related (250 mg q.d., all grade): 5 (55.6) n (%) | TEAE, treatment related (250 mg q.d., all grade): 8 (88.9) n (%) | TEAEs leading to death (250 mg q.d., all grade): 0 n (%) | Treatment-related AE leading to death (250 mg q.d., all grade): 0 n (%) | IRR (250 mg q.d., grade ≥3): 1 (11.1) n (%) | Immune-related AE (250 mg q.d., grade ≥3): 2 (22.2) n (%) | Serious TEAE (250 mg q.d., grade ≥3): 6 (66.7) n (%) | Serious TEAE, peposertib related (250 mg q.d., grade ≥3): 1 (11.1) n (%) | Serious TEAE, radiotherapy related (250 mg q.d., grade ≥3): 1 (11.1) n (%) | Serious TEAE, treatment related (250 mg q.d., grade ≥3): 2 (22.2) n (%) | TEAE (250 mg q.d., grade ≥3): 7 (77.8) n (%) | TEAE, peposertib related (250 mg q.d., grade ≥3): 1 (11.1) n (%) | TEAE, radiotherapy related (250 mg q.d., grade ≥3): 1 (11.1) n (%) | TEAE, treatment related (250 mg q.d., grade ≥3): 3 (33.3) n (%) | TEAEs leading to death (250 mg q.d., grade ≥3): 0 n (%) | Treatment-related AE leading to death (250 mg q.d., grade ≥3): 0 n (%) | Discontinuation of all study treatments due to AEs (all dose levels): 6 (31.6%) | Peposertib-related TEAE: nausea (all dose levels): 5 (26.3%) | Peposertib-related TEAE: vomiting (all dose levels): 3 (15.8%)
